Key:
Test in all cases: relative viability (nuclei count vs DMSO), 5 days (fraction); higher = more cells survive
[1] = compound: Cc1ccc(F)c(NC(=O)Nc2ccc(-c3cccc4[nH]nc(N)c34)cc2)c1 [Linifanib] + COc1cccc2cc(-c3nc([C@H]4CC[C@H](C(=O)O)CC4)n4ncnc(N)c34)[nH]c12 [OSI-027] (partner 0.5 µM)
Procedure, shortened: (§1)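 Dosing by pin tool came one day after lung cancer cell lines were seeded in 1536-well plates, using either one drug or a fixed anchor-drug dose plus five library-drug doses (not always all listed) in √10 steps. After 5 days, nuclei were counted on 4× images. Relative viability is treated-well nuclei count divided by vehicle-well nuclei count, and values are medians of duplicate plates.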

[2] = compound: Cc1ccc(F)c(NC(=O)Nc2ccc(-c3cccc4[nH]nc(N)c34)cc2)c1 [Linifanib] + O=C(c1cc(Cc2n[nH]c(=O)c3ccccc23)ccc1F)N1CCN(C(=O)C2CC2)CC1 [Olaparib] (partner 8 µM)
Procedure, shortened: as §1

[3] = compound: Cc1ccc(F)c(NC(=O)Nc2ccc(-c3cccc4[nH]nc(N)c34)cc2)c1 [Linifanib] + CCNC(=O)c1noc(-c2cc(C(C)C)c(O)cc2O)c1-c1ccc(CN2CCOCC2)cc1 [Luminespib] (partner 0.01 µM)
Procedure, shortened: as §1

[4] = compound: Cc1ccc(F)c(NC(=O)Nc2ccc(-c3cccc4[nH]nc(N)c34)cc2)c1 [Linifanib] + NC(=O)Nc1cc(-c2cccc(F)c2)sc1C(=O)N[C@H]1CCCNC1 [AZD7762] (partner 0.2 µM)
Procedure, shortened: as §1

[5] = compound: Cc1ccc(F)c(NC(=O)Nc2ccc(-c3cccc4[nH]nc(N)c34)cc2)c1 [Linifanib] + C[C@@H](Oc1cc(-c2cnn(C3CCNCC3)c2)cnc1N)c1c(Cl)ccc(F)c1Cl [Crizotinib] (partner 1 µM)
Procedure, shortened: as §1

[6] = compound: Cc1ccc(F)c(NC(=O)Nc2ccc(-c3cccc4[nH]nc(N)c34)cc2)c1 [Linifanib]
Procedure, shortened: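 In 1536-well plates, lung cancer cell lines rested overnight at 37 °C before five library-drug doses (not always all listed), √10 apart, were pinned onto vehicle-anchored plates. Nuclei were counted with MetaXpress from 4× Hoechst images taken after 5 days without medium change. Viability compares treated-well with vehicle-well nuclei as a median over plates, and plates needed control CV below 25% plus at least one doubling to pass.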

Cell Line | relative viability ([1]; first compound 0.03162 µM) | relative viability ([1]; first compound 0.1 µM) | relative viability ([1]; first compound 0.3162 µM) | relative viability ([2]; first compound 0.03162 µM) | relative viability ([2]; first compound 0.1 µM) | relative viability ([2]; first compound 0.3162 µM) | relative viability ([3]; first compound 0.03162 µM) | relative viability ([3]; first compound 0.1 µM) | relative viability ([3]; first compound 0.3162 µM) | relative viability ([4]; first compound 0.03162 µM) | relative viability ([4]; first compound 0.1 µM) | relative viability ([4]; first compound 0.3162 µM) | relative viability ([5]; first compound 0.03162 µM) | relative viability ([5]; first compound 0.1 µM) | relative viability ([5]; first compound 0.3162 µM) | relative viability ([6]; 0.03162 µM) | relative viability ([6]; 0.1 µM) | relative viability ([6]; 0.3162 µM)
NCI-H838 | 0.393 | 0.429 | 0.397 | 0.753 | 0.783 | 0.71 | 0.373 | 0.285 | 0.267 | 0.907 | 0.952 | 0.953 | 0.847 | 0.839 | 0.841 | 0.96 | 1.06 | 0.936
A-427 | 0.526 | 0.512 | 0.423 | 0.722 | 0.766 | 0.732 | 0.912 | 1.09 | 0.814 | 0.735 | 0.823 | 0.779 | 0.964 | 0.983 | 0.83 | 1.05 | 1.07 | 0.989
NCI-H650 | 0.493 | 0.584 | 0.514 | 0.348 | 0.397 | 0.361 | 0.816 | 0.611 | 0.71 | 0.947 | 0.99 | 0.675 | 0.742 | 0.665 | 0.73 | 1.1 | 1.11 | 0.972
NCI-H2347 | 0.476 | 0.434 | 0.415 | 0.629 | 0.646 | 0.565 | 0.479 | 0.408 | 0.348 | 0.822 | 0.803 | 0.653 | 0.727 | 0.7 | 0.812 | 1.08 | 1.22 | 1
EMC-BAC-2 | 0.439 | 0.361 | 0.375 | 0.508 | 0.498 | 0.487 | 1.2 | 1.19 | 1.14 | 1.18 | 1.21 | 1.09 | 0.837 | 0.791 | 0.733 | 1.07 | 1.03 | 0.965
EKVX | 0.756 | 0.707 | 0.712 | 0.953 | 0.868 | 0.914 | 0.838 | 0.962 | 0.854 | 0.78 | 0.873 | 0.808 | 0.939 | 1.01 | 0.875 | 0.982 | 1.01 | 0.91
NCI-H1651 | 0.624 | 0.8 | 0.829 | 0.181 | 0.202 | 0.195 | 0.945 | 0.748 | 0.797 | 0.428 | 0.483 | 0.544 | 0.834 | 0.929 | 0.831 | 1.07 | 1.09 | 0.978
LCLC-97TM1 | 0.718 | 0.624 | 0.563 | 0.453 | 0.402 | 0.502 | 0.721 | 0.766 | 0.595 | 0.262 | 0.229 | 0.29 | 0.43 | 0.456 | 0.362 | 1.15 | 1.02 | 0.919
201T | 0.671 | 0.86 | 0.745 | 0.839 | 0.825 | 0.842 | 1.1 | 1.06 | 1.03 | 0.603 | 0.606 | 0.654 | 0.999 | 1.02 | 1.04 | 1 | 0.992 | 0.982
NCI-H322M | 0.629 | 0.584 | 0.503 | 0.832 | 0.809 | 0.796 | 0.88 | 0.863 | 0.882 | 0.594 | 0.581 | 0.552 | 0.954 | 0.982 | 0.828 | 1 | 0.939 | 0.956
HARA | 0.569 | 0.571 | 0.498 | 0.855 | 0.837 | 0.745 | 1.12 | 0.651 | 0.707 | 0.402 | 0.445 | 0.387 | 1.09 | 1.18 | 0.975 | 0.926 | 1.04 | 0.907
CAL-12T | 0.761 | 0.736 | 0.73 | 0.642 | 0.703 | 0.702 | 0.438 | 0.751 | 0.364 | 0.623 | 0.661 | 0.588 | 0.835 | 0.692 | 0.698 | 1.15 | 0.99 | 0.9
NCI-H2087 | 0.643 | 0.585 | 0.563 | 0.618 | 0.764 | 0.598 | 0.175 | 0.193 | 0.171 | 1.33 | 1.45 | 1.32 | 0.602 | 1.03 | 0.655 | 1.05 | 1.19 | 0.964
NCI-H727 | 0.642 | 0.635 | 0.722 | 0.938 | 0.744 | 0.784 | 0.312 | 0.292 | 0.358 | 0.602 | 0.62 | 0.358 | 1.01 | 1.01 | 0.725 | 0.899 | 1.02 | 0.855
H3255 | 0.58 | 0.606 | 0.583 | 0.619 | 0.567 | 0.574 | 0.85 | 0.94 | 0.976 | 0.868 | 0.925 | 0.853 | 0.865 | 0.892 | 0.85 | 1.04 | 1.01 | 1.02
LXF-289 | 0.905 | 0.829 | 0.774 | 1.13 | 1.2 | 0.898 | 0.766 | 0.866 | 0.674 | 1.11 | 1.15 | 0.934 | 0.887 | 0.855 | 0.742 | 1.04 | 1.04 | 0.84

Source: the supplement of paper PMC10307832
